Data on 1 compound can be found in US20120315654A1, “COMPOSITIONS AND METHODS FOR DETECTING CARDIOTOXICITY” (DUKE UNIVERSITY, priority 2011, published 2012).

Data set [1] addresses T1, Cr transporter (CrT) (Rattus norvegicus, UniProt P28570).
T1 construct: measuring ^14C—Cr uptake in primary RNCMs; endogenous in cells; host or cells: primary rat neonatal cardiomyocytes (RNCM)
T1 sequence (P28570 1-635): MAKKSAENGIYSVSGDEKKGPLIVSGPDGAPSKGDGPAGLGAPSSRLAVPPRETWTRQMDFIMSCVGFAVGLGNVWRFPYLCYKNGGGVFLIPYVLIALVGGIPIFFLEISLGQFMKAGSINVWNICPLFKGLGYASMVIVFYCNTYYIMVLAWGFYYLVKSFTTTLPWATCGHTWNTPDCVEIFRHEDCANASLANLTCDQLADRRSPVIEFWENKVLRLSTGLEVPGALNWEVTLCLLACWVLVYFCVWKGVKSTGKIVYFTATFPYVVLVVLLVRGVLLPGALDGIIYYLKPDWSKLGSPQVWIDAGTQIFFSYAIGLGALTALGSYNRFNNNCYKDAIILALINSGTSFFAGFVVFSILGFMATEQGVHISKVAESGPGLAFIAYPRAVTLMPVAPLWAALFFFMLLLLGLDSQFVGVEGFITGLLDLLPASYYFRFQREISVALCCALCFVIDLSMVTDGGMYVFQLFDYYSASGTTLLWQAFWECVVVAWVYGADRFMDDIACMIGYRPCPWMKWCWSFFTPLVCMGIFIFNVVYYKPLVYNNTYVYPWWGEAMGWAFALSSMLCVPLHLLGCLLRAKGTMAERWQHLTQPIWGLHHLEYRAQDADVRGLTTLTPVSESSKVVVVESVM
In words: 14C-Cr transport in rat neonatal cardiomyocytes (RNCM) after DOX incubation. The format is cell-based. The settings on record: 100 nmol/L DOX. The procedure: Cells were plated on tissue culture dishes pre-coated with gelatin/fibronectin and allowed to grow in M199 media (INVITROGEN, Carlsbad, Calif.) containing 2% serum before experimentation. All animals were treated according to protocols approved by Duke University's Institutional Animal Care and Use Committee. HL-1 cells (passages 50 to 75), were plated onto fibronectin/gelatin-coated plates and cultured in CLAYCOMB media (SIGMA, St. Louis, Mo.) supplemented with 10% fetal bovine serum, 100 units/ml penicillin, 100 μg/ml streptomycin, 0.1 mM norepinephrine, and 2 mmol/L L-glutamine, as described previously (White S. M., et al., Am J Physiol Heart Circ Physiol 286: H823-829, 2004). The cultures were maintained in a humidified atmosphere of 5% CO2 at 37° C.
Cr transport assays were performed after growth in control media for 0, 4, 12, 24 or 48 hrs.
Cells used for Cr transport assays were cultured in 24-well plates coated with fibronectin and gelatin. […]
For assays that measured Cr transport kinetics, the final Cr content in the uptake buffer ranged from 5 to 305 μmol/L. Uptake was terminated by aspiration of the radiolabeled solution, followed by 3 washes with ice-cold choline buffer. […] Cr transport was normalized to the protein concentration measured using the bicinchoninic acid (BCA) protein assay (PIERCE BIOTECHNOLOGY, Rockford, Ill.). […]

Data set [2] concerns RNCM. In words: Caspase 3/7 apoptosis assay in RNCM. The format is cell-based, rat. Particulars: 100 nmol/L DOX, up to 48 hrs. As for the experimental part:
Apoptosis was measured using PROMEGA's CASPASE-GLO 3/7 ASSAY SYSTEM (PROMEGA). Briefly, attached cells in a single 24-well plate were washed 3 times with ice-cold PBS and resuspended in 500 μl of 1% TRITON-X100; 10% glycerol; 2 mmol/L EDTA; 137 mmol/L NaCl; and 20 mmol/L Tris, pH 8.0. A mixture of 25 μL of lysate and 25 μL of caspase 3/7-assay reagent was prepared, and sequential luminescent readings were taken every 15 min for 4 hrs. Peak signal readings were normalized to protein content and plotted.

Data set [3] relates to HL-1 cells. In words: LDH release cytotoxicity assay in HL-1 cells. The format is cell-based, murine. As for the experimental part:
Toxicity was assessed by quantifying the amount of lactate dehydrogenase (LDH) present in the culture media using PROMEGA's CYTOTOX96 NON-RADIOACTIVE ASSAY (PROMEGA, Madison, Wis.). Maximum cytotoxicity was determined by measuring the amount of LDH released in cells incubated with the kit's lysis buffer. The percentage of LDH released after DOX treatment was compared with that of controls.
(In general: LDH leaks from cells whose membrane has failed.)

The test system of data set [4] is HL-1 cells. In words: Quantification of Cr and high-energy phosphates in HL-1 extracts by LC-MS/MS. Particulars: HL-1, 100 nmol/L DOX, 24 hrs.

The structures appear in SMILES notation.

Regarding `COc1cccc2c1C(=O)c1c(O)c3c(c(O)c1C2=O)C[C@@](O)(C(=O)CO)C[C@@H]3O[C@H]1C[C@H](N)[C@H](O)[C@H](C)O1` [DOX, Doxorubicin], the “Decrease in Cr uptake” value in data set [1] (32 hrs before the 36 hrs point (FIG. 1A)) stood at 37%. Further, the “Cr transport (14C-Cr uptake)” value in data set [1] (within 2-4 hrs of exposure, vs control media) is listed as “decreased significantly”. For the same compound, the “Apoptosis (caspase 3/7 activation)” value in data set [2] was “No increase”. Further, the LDH release entry in data set [3] (HL-1, 50 nmol/L DOX, through 48 hrs) was “not significantly elevated”. Besides, the “Increase in LDH release compared with controls” value in data set [3] (HL-1, 100 nmol/L DOX, 24 hrs) is reported as “approximately 10%”. In data set [4], this compound displayed an ADP of 0.50 ± 0.07 μmols/mg prot, an AMP of 0.26 ± 0.08 μmols/mg prot, an ATP of 0.60 ± 0.15 μmols/mg prot and a Cr of 23.01 ± 7.92 μmols/mg prot. This compound registered a PCr in data set [4] of 5.94 ± 0.12 μmols/mg prot.
